In patent US20090220648A1, “Nutritional additive for animals” (KEMIRA GROW HOW AB, priority 2005, published 2009):

Experiment: Buffering capacity
Type: physicochemical

Structure (SMILES) | buffering capacity, mekvH+/kg sample [mekvH+/kg sample]
O=C([O-])[O-].[Ca+2] [CaCO3] | 14850
O=S(=O)([O-])[O-].[Ca+2] [CaSO4] | 50
